The values that follow come from patent publication US20260117070A1, “NEAR-INFRARED FLUORESCENT HEPTAMETHINE DYE CONJUGATES WITH FAVORABLE BLEACHING PROPERTIES” (HELMHOLTZ ZENTRUM MÜNCHEN DEUTSCHES FORSCHUNGSZENTRUM FÜR …, priority 2022, published 2026).

One data set deals with MDA-MB-468 cells. As to the kind of experiment: In vivo distribution of NIR-fluorescent Panitumumab conjugates in tumor bearing mice. The note with it: 24 hrs after intravenous injection; 3 μg or 100 μg dose. The source says:
FIG. 5: Comparing Pan-sNIR (NIR-fluorescent Panitumumab) and Pan-IRDye800CW in tumor bearing mice post intraveneous injection. Mice were generated by subcutaneous implantation of MDA-MB-468 cells.

Data set [1] in a line: Procedure for determining photostability (bleaching in vitro, continuous 785 nm irradiation). It counts as physicochemical.
Procedure: 4C): Bleaching in vitro: Capillaries filled with 2.5 μM solutions in serum were continuously irradiated using a 785 nm laser (100 mW/cm^2) and frames were acquired for 20 minutes. Bleaching kinetics were extracted by analyzing the mean counts in an ROI overtime
Imaging was performed on a custom-built setup. LUMICS laser unit LU0785DLU250-S70AN03 (25 W) 785 nm″ was used for excitation. Laser was externally controlled using a LUMICS laser diode control system. Laser output was coupled in a 4×1 fan-out fiber-optic bundle (THORLABS BF46LSO1) of 600 μm core diameter for each optical path. The output from the fiber was fixed in an excitation cube (THORLABS KCB1EC/M), reflected off of a mirror (THORLABS BBE1-E03), and passed through a positive achromat (THORLABS AC254-050-B), SP filter (THORLABS FESH800) and an engineered diffuser (THORLABS ED1-S20-MD or ED1-S50-MD) to provide uniform illumination over the working area. In a typical experiment, the excitation flux in the field of view was adjusted to be close to 100 mWcm^−2. Power density was determined using a THORLABS energy meter console PM100D in combination with a THORLABS S130C sensor (measurement uncertainty of ±3%). The working area was covered by blackout fabric (THORLABS BK5). Emitted light was directed through two filters (THORLABS FELH800) screwed onto a EDMUND OPTICS Acktar Hexa-Black 25 mm noise reduction extension tube, via a C-mount camera lens (NAVITAR SWIR-35) onto an NIR-camera (PCO Edge 4.2 or Prime BSI). The software μManager was used to externally control the camera. The assembly was partially enclosed to avoid excess light while enabling manipulation of the field of view during operation.
For each dye (conjugate), solutions in H2O and FBS with an OD (785 nm)<1.0 in a 1 cm cuvette (HELLMA 115B-QS) were prepared. […] In order to be able to make useful comparison between different samples and experiments, the time axis was converted into a number of absorbance events by multiplication with the “absorptions per molecule per second”.

Regarding “Pan-8000W: Panitumumab-IRDye800, prepared in a similar fashion [reference compound]”, in the data set on MDA-MB-468 cells, the “tumor signal than/over the liver” value is reported as 1.4-1.8 ×.

For the compound `C#CCCCCNC(=O)C(=C\C=C\C1=[N+](CCCCS(=O)(=O)[O-])c2ccc(S(=O)(=O)[O-])cc2C1(C)C)/C=C/C=C1/N(CCCCS(=O)(=O)[O-])c2ccc(S(=O)(=O)[O-])cc2C1(C)C.[Na+].[Na+].[Na+]` [sNIR, sodium 2-((1E,3Z,5E)-7-((E)-3,3-dimethyl-5-sulfonato-1-(4-sulfonatobutyl)indolin-2-ylidene)-4-(hex-5-yn-1-ylcarbamoyl)hepta-1,3,5-trien-1-yl)-3,3-dimethyl-1-(4-sulfonatobutyl)-3H-indol-1-ium-5-sulfonate], in data set [1] (fetal bovine serum (FBS)), the “more photostable than NIR, IRDye®8000W” value is on record as 2.5 times and the “more stable than ICG” value is 1.6 times. Besides, the “bleaching slower than NIR, ICG and IRDye®8000W” value in data set [1] (water) turned out to be 3.5 times.
